In ChEMBL document CHEMBL1909046, “DrugMatrix in vitro pharmacology data”:

Experiments:
Melanocortin receptor 3 = Melanocortin receptor 3 (Homo sapiens, UniProt P41968); type: cell membranes, Membrane; settings: hek293; also: in other assays of this panel Not Active means under 50% inhibition at 10 µM
[1] = target: Vascular endothelial growth factor receptor 1 (Homo sapiens, UniProt P17948); type: cell-based; settings: huvec; also: in other assays of this panel Not Active means under 50% inhibition at 10 µM
Melanocortin receptor 4 = Melanocortin receptor 4 (Homo sapiens, UniProt P32245); type: cell membranes, Membrane; settings: hek293; also: in other assays of this panel Not Active means under 50% inhibition at 10 µM
[2] = DRUGMATRIX: GABAA, Chloride Channel, TBOB radioligand binding (ligand: [3H] TBOB); type: cell membranes, Rattus norvegicus, Wistar, Cerebral cortex, Membrane; settings: Not Active = under 50% inhibition at 10 µM
D(4) dopamine receptor = target: T1, D(4) dopamine receptor (Homo sapiens, UniProt P21917); assay: DRUGMATRIX: Dopamine D4.2 radioligand binding (ligand: [3H] Spiperone); type: cell membranes, CHO-K1, Membrane; settings: cho-k1; Not Active = under 50% inhibition at 10 µM
T1 sequence (P21917 whole entry): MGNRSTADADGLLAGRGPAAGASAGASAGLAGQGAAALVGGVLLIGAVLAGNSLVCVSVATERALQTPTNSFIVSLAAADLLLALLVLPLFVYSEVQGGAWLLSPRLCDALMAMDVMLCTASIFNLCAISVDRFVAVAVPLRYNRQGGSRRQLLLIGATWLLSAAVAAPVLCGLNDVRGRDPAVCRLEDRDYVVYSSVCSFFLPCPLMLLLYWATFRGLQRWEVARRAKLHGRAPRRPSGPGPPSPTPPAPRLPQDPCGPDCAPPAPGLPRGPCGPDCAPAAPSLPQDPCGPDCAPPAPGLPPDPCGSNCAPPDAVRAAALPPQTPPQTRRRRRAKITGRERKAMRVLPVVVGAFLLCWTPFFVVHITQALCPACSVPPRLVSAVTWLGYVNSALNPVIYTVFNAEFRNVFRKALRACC

[3] = target: T2, Neuropeptide Y receptor type 2 (Homo sapiens, UniProt P49146); type: cell membranes, Membrane; settings: kan-ts; also: in other assays of this panel Not Active means under 50% inhibition at 10 µM
T2 sequence (P49146 whole entry): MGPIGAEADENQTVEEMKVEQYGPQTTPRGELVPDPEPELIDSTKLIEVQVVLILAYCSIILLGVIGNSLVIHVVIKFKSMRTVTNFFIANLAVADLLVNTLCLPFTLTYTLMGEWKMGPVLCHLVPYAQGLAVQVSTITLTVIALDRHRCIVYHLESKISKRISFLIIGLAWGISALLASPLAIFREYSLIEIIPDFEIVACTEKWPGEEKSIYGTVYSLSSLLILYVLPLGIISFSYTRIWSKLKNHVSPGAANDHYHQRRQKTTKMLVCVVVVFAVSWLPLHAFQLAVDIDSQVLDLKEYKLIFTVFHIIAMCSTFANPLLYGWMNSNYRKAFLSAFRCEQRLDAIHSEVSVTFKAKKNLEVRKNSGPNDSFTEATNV

[4] = target: Beta-1 adrenergic receptor (Homo sapiens, UniProt P08588); assay: DRUGMATRIX: Adrenergic beta1 radioligand binding (ligand: [125I] Cyanopindolol); type: cell membranes, CHO-K1, Membrane; settings: cho-k1; Not Active = under 50% inhibition at 10 µM
Leukotriene C4 synthase = target: T3, Leukotriene C4 synthase (Cavia porcellus, UniProt A6XA80); assay: biochemical; type: tissue-based, Lung
T3 sequence (A6XA80 whole entry): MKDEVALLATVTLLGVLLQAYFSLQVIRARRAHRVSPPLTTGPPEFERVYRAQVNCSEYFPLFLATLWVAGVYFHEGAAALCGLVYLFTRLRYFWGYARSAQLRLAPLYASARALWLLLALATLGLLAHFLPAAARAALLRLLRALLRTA

[5] = DRUGMATRIX: beta-Lactamase enzyme inhibition (substrate: Nitrocefin); set-up: species or system Bacillus cereus; settings: Not Active = under 50% inhibition at 10 µM
[6] = target: T4, Alpha-1A adrenergic receptor (Rattus norvegicus, UniProt P43140); assay: DRUGMATRIX: Alpha-1A adrenergic receptor radioligand binding (ligand: prazosin); type: cell membranes, Wistar, Submaxillary gland, Membrane; settings: Not Active = under 50% inhibition at 10 µM
T4 sequence (P43140 whole entry): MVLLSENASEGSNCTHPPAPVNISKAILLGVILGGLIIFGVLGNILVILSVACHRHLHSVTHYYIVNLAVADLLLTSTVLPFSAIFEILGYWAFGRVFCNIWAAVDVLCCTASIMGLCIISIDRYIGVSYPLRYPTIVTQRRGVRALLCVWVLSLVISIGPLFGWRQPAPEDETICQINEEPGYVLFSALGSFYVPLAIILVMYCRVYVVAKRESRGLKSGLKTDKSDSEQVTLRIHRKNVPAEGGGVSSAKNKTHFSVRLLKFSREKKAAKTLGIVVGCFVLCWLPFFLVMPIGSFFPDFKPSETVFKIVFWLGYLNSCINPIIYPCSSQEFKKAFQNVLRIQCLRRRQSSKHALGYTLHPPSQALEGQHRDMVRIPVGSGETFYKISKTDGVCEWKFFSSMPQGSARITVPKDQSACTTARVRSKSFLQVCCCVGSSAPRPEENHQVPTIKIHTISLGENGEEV

[7] = DRUGMATRIX: Platelet-Derived Growth Factor (PDGF) radioligand binding (ligand: [125I] PDGF); type: cell-based; settings: nih3t3; Not Active = under 50% inhibition at 10 µM
[8] = DRUGMATRIX: Nicotinic Acetylcholine radioligand binding (ligand: [125I] Epibatidine); type: cell membranes, Membrane; settings: imr-32; Not Active = under 50% inhibition at 10 µM
Progesterone receptor = target: T5, Progesterone receptor (Bos taurus, UniProt Q690N0); assay: DRUGMATRIX: Progesterone radioligand binding (ligand: [3H] R-5020); type: tissue-based, Uterus; settings: Not Active = under 50% inhibition at 10 µM
T5 sequence (Q690N0 whole entry): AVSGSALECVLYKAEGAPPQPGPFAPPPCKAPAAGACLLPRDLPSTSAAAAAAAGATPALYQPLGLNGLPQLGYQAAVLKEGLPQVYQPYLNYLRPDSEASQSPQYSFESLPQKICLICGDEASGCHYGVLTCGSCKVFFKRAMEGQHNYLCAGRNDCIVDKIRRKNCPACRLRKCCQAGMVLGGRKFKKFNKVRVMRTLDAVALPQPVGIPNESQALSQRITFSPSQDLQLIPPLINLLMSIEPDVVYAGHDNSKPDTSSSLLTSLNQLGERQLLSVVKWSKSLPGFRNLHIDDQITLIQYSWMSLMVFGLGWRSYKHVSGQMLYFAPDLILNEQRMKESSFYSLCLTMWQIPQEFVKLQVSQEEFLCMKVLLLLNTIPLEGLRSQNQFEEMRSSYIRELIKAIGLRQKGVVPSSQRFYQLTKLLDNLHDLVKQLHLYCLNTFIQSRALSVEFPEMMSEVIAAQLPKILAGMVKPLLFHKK

[9] = DRUGMATRIX: Calcium Channel Type L, Benzothiazepine radioligand binding (ligand: [3H] Diltiazem); type: cell membranes, Rattus norvegicus, Wistar, Brain, Membrane; settings: Not Active = under 50% inhibition at 10 µM
[10] = DRUGMATRIX: Glutamate, NMDA, Phencyclidine radioligand binding (ligand: [3H] TCP); type: cell membranes, Rattus norvegicus, Wistar, Cerebral cortex, Membrane; settings: Not Active = under 50% inhibition at 10 µM
Histamine H2 receptor = Histamine H2 receptor (Homo sapiens, UniProt P25021); type: cell membranes, CHO-K1, Membrane; settings: cho-k1; also: in other assays of this panel Not Active means under 50% inhibition at 10 µM
[11] = target: Tyrosine-protein kinase Fyn (Homo sapiens, UniProt P06241); assay: biochemical; type: cell-based, Insect cells; settings: insect cells
Sequence of Tyrosine-protein kinase Fyn (P06241 whole entry): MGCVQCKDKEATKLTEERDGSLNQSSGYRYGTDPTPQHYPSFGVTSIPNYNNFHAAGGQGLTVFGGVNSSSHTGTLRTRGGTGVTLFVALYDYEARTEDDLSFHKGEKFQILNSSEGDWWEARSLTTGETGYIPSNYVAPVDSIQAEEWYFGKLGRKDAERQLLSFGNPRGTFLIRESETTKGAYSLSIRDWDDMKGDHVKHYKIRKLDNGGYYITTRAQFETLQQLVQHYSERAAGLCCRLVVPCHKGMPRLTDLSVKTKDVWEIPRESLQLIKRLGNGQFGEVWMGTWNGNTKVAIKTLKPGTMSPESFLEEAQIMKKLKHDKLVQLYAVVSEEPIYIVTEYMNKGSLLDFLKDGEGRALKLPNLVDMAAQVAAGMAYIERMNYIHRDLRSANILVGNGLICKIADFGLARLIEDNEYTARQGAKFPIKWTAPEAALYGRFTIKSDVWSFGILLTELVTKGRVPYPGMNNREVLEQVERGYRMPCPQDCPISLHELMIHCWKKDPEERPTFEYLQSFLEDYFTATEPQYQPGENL

Sequence of Melanocortin receptor 4 (P32245 whole entry): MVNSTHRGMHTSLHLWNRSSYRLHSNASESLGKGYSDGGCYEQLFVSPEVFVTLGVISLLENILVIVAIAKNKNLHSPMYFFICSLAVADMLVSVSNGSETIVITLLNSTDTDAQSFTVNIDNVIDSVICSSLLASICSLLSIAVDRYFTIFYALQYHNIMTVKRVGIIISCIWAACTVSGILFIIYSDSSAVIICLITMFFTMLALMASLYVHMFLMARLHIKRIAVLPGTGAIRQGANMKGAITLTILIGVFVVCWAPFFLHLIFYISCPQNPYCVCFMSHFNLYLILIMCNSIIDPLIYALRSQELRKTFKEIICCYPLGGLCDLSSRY
Sequence of Beta-1 adrenergic receptor (P08588 whole entry): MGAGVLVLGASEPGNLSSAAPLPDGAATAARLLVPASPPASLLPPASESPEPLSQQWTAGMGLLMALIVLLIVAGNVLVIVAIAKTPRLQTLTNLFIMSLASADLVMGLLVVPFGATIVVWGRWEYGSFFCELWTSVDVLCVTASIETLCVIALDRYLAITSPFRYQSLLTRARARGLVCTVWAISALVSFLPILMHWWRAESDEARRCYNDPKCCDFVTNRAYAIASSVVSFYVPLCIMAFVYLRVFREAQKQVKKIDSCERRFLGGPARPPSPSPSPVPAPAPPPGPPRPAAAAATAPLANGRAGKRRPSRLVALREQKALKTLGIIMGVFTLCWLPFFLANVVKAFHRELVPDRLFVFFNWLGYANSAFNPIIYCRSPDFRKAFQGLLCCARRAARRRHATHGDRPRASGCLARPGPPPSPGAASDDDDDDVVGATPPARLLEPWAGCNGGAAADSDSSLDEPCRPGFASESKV
Sequence of Histamine H2 receptor (P25021 whole entry): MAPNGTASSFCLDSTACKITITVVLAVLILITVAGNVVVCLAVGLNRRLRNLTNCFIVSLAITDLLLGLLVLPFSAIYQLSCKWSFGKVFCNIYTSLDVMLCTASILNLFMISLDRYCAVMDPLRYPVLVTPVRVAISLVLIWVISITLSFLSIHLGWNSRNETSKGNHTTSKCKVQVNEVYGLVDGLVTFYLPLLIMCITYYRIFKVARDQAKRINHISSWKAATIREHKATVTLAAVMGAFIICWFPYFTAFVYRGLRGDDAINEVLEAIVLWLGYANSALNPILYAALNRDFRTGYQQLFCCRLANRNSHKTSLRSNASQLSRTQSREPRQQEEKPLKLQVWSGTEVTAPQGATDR
Sequence of Melanocortin receptor 3 (P41968 whole entry): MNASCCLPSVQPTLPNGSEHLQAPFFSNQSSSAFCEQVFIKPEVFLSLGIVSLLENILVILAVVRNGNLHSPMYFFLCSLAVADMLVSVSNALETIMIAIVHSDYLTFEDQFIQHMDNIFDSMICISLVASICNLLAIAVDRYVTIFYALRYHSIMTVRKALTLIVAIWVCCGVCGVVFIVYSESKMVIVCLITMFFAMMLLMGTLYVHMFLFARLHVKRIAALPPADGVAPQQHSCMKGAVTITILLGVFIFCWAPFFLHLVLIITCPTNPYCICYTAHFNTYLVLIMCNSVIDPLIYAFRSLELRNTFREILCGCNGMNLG
Sequence of Vascular endothelial growth factor receptor 1 (P17948 whole entry): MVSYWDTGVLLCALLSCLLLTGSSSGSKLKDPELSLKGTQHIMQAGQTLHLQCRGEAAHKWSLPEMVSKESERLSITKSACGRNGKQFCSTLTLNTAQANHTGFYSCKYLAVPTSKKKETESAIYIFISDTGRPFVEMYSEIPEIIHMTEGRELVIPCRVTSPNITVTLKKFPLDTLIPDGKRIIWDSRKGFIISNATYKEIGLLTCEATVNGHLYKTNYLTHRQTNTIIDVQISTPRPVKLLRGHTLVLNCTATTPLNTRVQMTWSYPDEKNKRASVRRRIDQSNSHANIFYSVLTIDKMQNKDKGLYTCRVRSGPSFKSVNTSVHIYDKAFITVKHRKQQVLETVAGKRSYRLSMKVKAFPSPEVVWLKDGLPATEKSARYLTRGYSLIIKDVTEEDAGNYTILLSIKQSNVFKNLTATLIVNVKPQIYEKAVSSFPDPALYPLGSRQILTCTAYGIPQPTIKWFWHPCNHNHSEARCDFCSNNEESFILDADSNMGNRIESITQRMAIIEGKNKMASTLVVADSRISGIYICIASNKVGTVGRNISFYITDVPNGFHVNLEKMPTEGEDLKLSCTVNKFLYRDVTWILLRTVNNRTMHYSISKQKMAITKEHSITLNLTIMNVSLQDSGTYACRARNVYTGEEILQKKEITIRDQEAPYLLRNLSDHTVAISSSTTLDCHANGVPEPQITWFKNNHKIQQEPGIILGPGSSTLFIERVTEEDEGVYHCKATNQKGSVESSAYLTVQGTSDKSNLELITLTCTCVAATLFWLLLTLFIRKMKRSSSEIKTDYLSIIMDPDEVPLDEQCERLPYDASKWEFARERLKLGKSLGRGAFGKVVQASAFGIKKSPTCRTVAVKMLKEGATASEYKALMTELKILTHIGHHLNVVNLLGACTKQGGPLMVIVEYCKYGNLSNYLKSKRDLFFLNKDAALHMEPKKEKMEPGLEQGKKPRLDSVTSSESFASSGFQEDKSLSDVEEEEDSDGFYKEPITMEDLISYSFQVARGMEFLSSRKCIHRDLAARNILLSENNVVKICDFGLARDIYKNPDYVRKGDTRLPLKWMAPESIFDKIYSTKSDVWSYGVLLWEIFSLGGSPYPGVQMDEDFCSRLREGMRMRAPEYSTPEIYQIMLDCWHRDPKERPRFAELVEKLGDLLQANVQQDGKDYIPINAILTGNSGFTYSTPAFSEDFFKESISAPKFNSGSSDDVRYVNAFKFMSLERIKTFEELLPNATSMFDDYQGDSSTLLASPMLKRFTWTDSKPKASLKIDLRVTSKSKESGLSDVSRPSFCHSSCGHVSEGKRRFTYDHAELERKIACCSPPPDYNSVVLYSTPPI

Cc1cc(NS(=O)(=O)c2ccc(N)cc2)no1 [SULFAMETHOXAZOLE]
Not Active: IC50 (Melanocortin receptor 3) | IC50 [1] | IC50 (Melanocortin receptor 4) | IC50 [2] | Ki [2] | IC50 (D(4) dopamine receptor) | IC50 [3] | IC50 [4] | IC50 (Leukotriene C4 synthase) | IC50 [5] | Ki [5] | IC50 [6] | IC50 [7] | Ki [7] | IC50 [8] | Ki [8] | IC50 (Progesterone receptor) | IC50 [9] | Ki [9] | IC50 [10] | Ki [10] | IC50 (Histamine H2 receptor) | IC50 [11]

Nc1ccc(S(N)(=O)=O)cc1 [SULFANILAMIDE]
Not Active: IC50 (Melanocortin receptor 3) | IC50 [1] | IC50 (Melanocortin receptor 4) | IC50 [2] | Ki [2] | IC50 (D(4) dopamine receptor) | IC50 [3] | IC50 [4] | IC50 (Leukotriene C4 synthase) | IC50 [5] | Ki [5] | IC50 [6] | IC50 [7] | Ki [7] | IC50 [8] | Ki [8] | IC50 (Progesterone receptor) | IC50 [9] | Ki [9] | IC50 [10] | Ki [10] | IC50 (Histamine H2 receptor) | IC50 [11]

Nc1ccc(S(=O)(=O)Nc2ccnn2-c2ccccc2)cc1 [SULFAPHENAZOLE]
Not Active: IC50 (Melanocortin receptor 3) | IC50 [1] | IC50 (Melanocortin receptor 4) | IC50 [2] | Ki [2] | IC50 (D(4) dopamine receptor) | IC50 [3] | IC50 [4] | IC50 (Leukotriene C4 synthase) | IC50 [5] | Ki [5] | IC50 [6] | IC50 [7] | Ki [7] | IC50 [8] | Ki [8] | IC50 (Progesterone receptor) | IC50 [9] | Ki [9] | IC50 [10] | Ki [10] | IC50 (Histamine H2 receptor) | IC50 [11]

C=CC[C@@H]1/C=C(\C)C[C@H](C)C[C@H](OC)[C@H]2O[C@@](O)(C(=O)C(=O)N3CCCC[C@H]3C(=O)O[C@H](/C(C)=C/[C@@H]3CC[C@@H](O)[C@H](OC)C3)[C@H](C)[C@@H](O)CC1=O)[C@H](C)C[C@@H]2OC [TACROLIMUS ANHYDROUS]
Not Active: IC50 (Melanocortin receptor 3) | IC50 [1] | IC50 (Melanocortin receptor 4) | IC50 [2] | Ki [2] | IC50 (D(4) dopamine receptor) | IC50 [3] | IC50 [4] | IC50 (Leukotriene C4 synthase) | IC50 [5] | Ki [5] | IC50 [6] | IC50 [7] | Ki [7] | IC50 [8] | Ki [8] | IC50 (Progesterone receptor) | IC50 [9] | Ki [9] | IC50 [10] | Ki [10] | IC50 (Histamine H2 receptor) | IC50 [11]

CC1CN(c2cc3c(cc2F)c(=O)c(C(=O)O)cn3-c2ccc(F)cc2F)CCN1 (stereo not drawn) [TEMAFLOXACIN]
Not Active: IC50 (Melanocortin receptor 3) | IC50 [1] | IC50 (Melanocortin receptor 4) | IC50 [2] | Ki [2] | IC50 (D(4) dopamine receptor) | IC50 [3] | IC50 [4] | IC50 (Leukotriene C4 synthase) | IC50 [5] | Ki [5] | IC50 [6] | IC50 [7] | Ki [7] | IC50 [8] | Ki [8] | IC50 (Progesterone receptor) | IC50 [9] | Ki [9] | IC50 [10] | Ki [10] | IC50 (Histamine H2 receptor) | IC50 [11]

CN(C)[C@@H]1C(O)=C(C(N)=O)C(=O)[C@@]2(O)C(O)=C3C(=O)c4c(O)cccc4[C@@](C)(O)[C@H]3C[C@@H]12 [TETRACYCLINE]
Not Active: IC50 (Melanocortin receptor 3) | IC50 [1] | IC50 (Melanocortin receptor 4) | IC50 [2] | Ki [2] | IC50 (D(4) dopamine receptor) | IC50 [3] | IC50 [4] | IC50 (Leukotriene C4 synthase) | IC50 [5] | Ki [5] | IC50 [6] | IC50 [7] | Ki [7] | IC50 [8] | Ki [8] | IC50 (Progesterone receptor) | IC50 [9] | Ki [9] | IC50 [10] | Ki [10] | IC50 (Histamine H2 receptor) | IC50 [11]
